Patent US7655429B2, “Immunoassays for topiramate” (Seradyn, Inc., priority 2004, dated 2010)

Experiments:
[1] = test system: anti-topiramate antibodies prepared with immunogen (17); assay: ELISA binding inhibition study (avidity), free topiramate versus coated antigen; design: species or system Rabbit
Method: ELISA plates for use in an ELISA assay are prepared in order to study the polyclonal antibody prepared as described in Example 21. As such, various topiramate antigens (16), (19), and (20) are coated on different ELISA plates before being subjected to the anti-topiramate antibody and competing free topiramate. More particularly, the topiramate antigens are diluted in coating buffer, and then added to the wells of ELISA plate. After the ELISA plate is incubated for 60 min at 37° C., the solvent in the coating buffer is decanted and a blocking buffer is added to the plate. The plate is incubated again for 60 min at 37° C., and the solvent in the blocking buffer is decanted from the plate. The ELISA plate is then stored with the blocking agent in the wells at 2-8° C. for up to 1 week. The avidity of the anti-topiramate antibodies prepared with immunogen (17) for topiramate analogs are determined by a binding inhibition study. As such, samples are prepared in 1 mL of PBS at pH 7.4 with 0.1% BSA. A composition having 30% Bmax titer or 50% Bmax titer is used to divide the obtained titer value into approximately half the titer value. Using 30% Bmax, an antibody titer of 1:10,000 is diluted to 1:5,000 during the sample preparation stage. About 50 μL of topiramate at different concentrations or calibrator values, (0, 2, 4, 8, 16, 32 μg/ml) are then applied to a plate as prepared in accordance with Example 22. About 50 μL of the diluted antibody is dispensed into the plate, and the compositions in the plate are mixed for 1 min on a horizontal plate shaker. The plate is characterized by a first row not containing topiramate or anti-topiramate antibody, wherein the first row is used as a negative control. A second row not containing topiramate is used as the positive control. The plate is incubated for 60 min, and washed three times with 250 μL of PBS at pH 7.4 with 0.05% tween. About 125 μL of a diluted second antibody conjugate such as antigens (16), (19), or (20), in PBS at pH 7.4 is added to each well of the plate. Titer is determined experimentally by the plate being incubated for 60 min at 37° C. and washed 3 times with 250 μL PBS, pH 7.4 with 0.05% tween. Subsequently, about 125 μL of ABTS substrate is added to each well of the plate and incubated for 20 min.

[2] = test system: sheep polyclonal antibodies that bind with topiramate prepared from immunogen (18); assay: QMS homogeneous particle-enhanced immunoturbidimetric assay; type: binding; settings: Topiramate antigen (19) coated Latex, Polyclonal antibody R1
Method: An immunoturbidimetric or QMS® assay, which is a homogeneous particle-enhanced immunoturbidimetric experiment, is performed to test the polyclonal antibodies prepared as in Example 21. […] The assay procedure is initiated by diluting the specimen because the specimens with topiramate can be used to generate results that exceed the highest calibrator value. As such, the specimens may be diluted manually or by using an automated onboard dilution protocol. The assay is based on competition for topiramate-specific antibody binding sites between drug in the sample and drug coated onto a microparticle of topiramate-coated microparticle reagent is rapidly agglutinated in the presence of the anti-topiramate antibody reagent and in the absence of any competing drug of the sample. The rate of absorbance change is measured photometrically, and is directly proportional to the rate of agglutination of the particles. […] A concentration-dependent classic agglutination inhibition curve can be obtained, with maximum rate of agglutination at the lowest topiramate concentration (at zero μg/ml) and the lowest agglutination rate at the highest topiramate concentration (32 μg/ml). The QMS® topiramate assay is initiated after the being calibrated using a full calibration (6-point) procedure. The QMS® is performed as directed in operation manuals in accordance with the average skill of one in the art.

[3] = Antigen 16, Topiramate 2 μg/ml, Rabbit No. 5481
[4] = Antigen 16, Topiramate 2 μg/ml, Rabbit No. 5492
[5] = Antigen 16, Topiramate 4 μg/ml, Rabbit No. 5481
[6] = Antigen 16, Topiramate 4 μg/ml, Rabbit No. 5492
[7] = Antigen 16, Topiramate 8 μg/ml, Rabbit No. 5481
[8] = Antigen 16, Topiramate 8 μg/ml, Rabbit No. 5492
[9] = Antigen 16, Topiramate 16 μg/ml, Rabbit No. 5481
[10] = Antigen 16, Topiramate 16 μg/ml, Rabbit No. 5492
[11] = Antigen 16, Topiramate 32 μg/ml, Rabbit No. 5481
[12] = Antigen 16, Topiramate 32 μg/ml, Rabbit No. 5492
[13] = Antigen 19, Topiramate 2 μg/ml, Rabbit No. 5481
[14] = Antigen 19, Topiramate 2 μg/ml, Rabbit No. 5492
[15] = Antigen 19, Topiramate 4 μg/ml, Rabbit No. 5481
[16] = Antigen 19, Topiramate 4 μg/ml, Rabbit No. 5492
[17] = Antigen 19, Topiramate 8 μg/ml, Rabbit No. 5481
[18] = Antigen 19, Topiramate 8 μg/ml, Rabbit No. 5492
[19] = Antigen 19, Topiramate 16 μg/ml, Rabbit No. 5481
[20] = Antigen 19, Topiramate 16 μg/ml, Rabbit No. 5492
[21] = Antigen 19, Topiramate 32 μg/ml, Rabbit No. 5481
[22] = Antigen 19, Topiramate 32 μg/ml, Rabbit No. 5492
[23] = Antigen 20, Topiramate 2 μg/ml, Rabbit No. 5481
[24] = Antigen 20, Topiramate 2 μg/ml, Rabbit No. 5492
[25] = Antigen 20, Topiramate 4 μg/ml, Rabbit No. 5481
[26] = Antigen 20, Topiramate 4 μg/ml, Rabbit No. 5492
[27] = Antigen 20, Topiramate 8 μg/ml, Rabbit No. 5481
[28] = Antigen 20, Topiramate 8 μg/ml, Rabbit No. 5492
[29] = Antigen 20, Topiramate 16 μg/ml, Rabbit No. 5481
[30] = Antigen 20, Topiramate 16 μg/ml, Rabbit No. 5492
[31] = Antigen 20, Topiramate 32 μg/ml, Rabbit No. 5481
[32] = Antigen 20, Topiramate 32 μg/ml, Rabbit No. 5492

Abs [1, 3]: 0.29
B/Bo [1, 3]: 0.38
Abs [1, 4]: 0.25
B/Bo [1, 4]: 0.56
Abs [1, 5]: 0.26
B/Bo [1, 5]: 0.34
Abs [1, 6]: 0.20
B/Bo [1, 6]: 0.44
Abs [1, 7]: 0.18
B/Bo [1, 7]: 0.24
Abs [1, 8]: 0.15
B/Bo [1, 8]: 0.33
Abs [1, 9]: 0.15
B/Bo [1, 9]: 0.20
Abs [1, 10]: 0.13
B/Bo [1, 10]: 0.29
Abs [1, 11]: 0.11
B/Bo [1, 11]: 0.14
Abs [1, 12]: 0.01
B/Bo [1, 12]: 0.02
Abs [1, 13]: 0.33
B/Bo [1, 13]: 0.40
Abs [1, 14]: 0.31
B/Bo [1, 14]: 0.38
Abs [1, 15]: 0.25
B/Bo [1, 15]: 0.30
Abs [1, 16]: 0.23
B/Bo [1, 16]: 0.28
Abs [1, 17]: 0.20
B/Bo [1, 17]: 0.24
Abs [1, 18]: 0.19
B/Bo [1, 18]: 0.23
Abs [1, 19]: 0.18
B/Bo [1, 19]: 0.22
Abs [1, 20]: 0.17
B/Bo [1, 20]: 0.20
Abs [1, 21]: 0.15
B/Bo [1, 21]: 0.18
Abs [1, 22]: 0.15
B/Bo [1, 22]: 0.18
Abs [1, 23]: 0.32
B/Bo [1, 23]: 0.53
Abs [1, 24]: 0.45
B/Bo [1, 24]: 0.64
Abs [1, 25]: 0.30
B/Bo [1, 25]: 0.50
Abs [1, 26]: 0.41
B/Bo [1, 26]: 0.59
Abs [1, 27]: 0.25
B/Bo [1, 27]: 0.42
Abs [1, 28]: 0.38
B/Bo [1, 28]: 0.54
Abs [1, 29]: 0.22
B/Bo [1, 29]: 0.37
Abs [1, 30]: 0.38
B/Bo [1, 30]: 0.54
Abs [1, 31]: 0.18
B/Bo [1, 31]: 0.30
Abs [1, 32]: 0.28
B/Bo [1, 32]: 0.40
Structure (SMILES): CC1(C)O[C@@H]2[C@@H](CO[C@@]3(COS(N)(=O)=O)OC(C)(C)O[C@@H]23)O1 [Topiramate, 2,3:4,5-di-O-isopropylidene-beta-D-fructopyranose sulfamate]
Rate (Delta Absorbance) ([2]; Topiramate 8 μg/ml sample): 60
Rate (Delta Absorbance) ([2]; Topiramate 16 μg/ml sample): 16
Rate (Delta Absorbance) ([2]; Topiramate 32 μg/ml sample): 4
